Experimental data taken from US9308223B2, “Om vitamin formula” (priority 2008, dated 2016).

Test system: ill-health symptoms of Lead intoxication
Test: Inventor's trial-and-error self-administration of vitamins to alleviate Lead intoxication symptoms
Format: in vivo, human
Details: for soothing of Lead intoxication symptoms: Beta Carotene around 20,000 I.U. and vitamin E around 100 I.U. in the formula, Lead intoxication with no other health conditions
From the text: I was already taking vitamins, so I started working with variety of vitamins in varying doses to alleviate the suffering. This was like an experiment on my body to find a balanced dose to alleviate Lead intoxication symptoms. It took me one and half decade to find the correct mix and proportion of vitamins. I will explain later why it took me so many years.
Vitamins dose was working correctly, however, I was taking certain quantity of milk (Calcium) in my diet so dose was adjusted with certain quantity of milk also. […] However, most of the symptoms as described earlier were alleviated with vitamins. In 2001, dizziness was extreme and glucose test was very close to borderline. Additional symptoms like some weight gain, elevated blood pressure and elevated cholesterol were noted. I realized immediately that I have done something wrong in working out the vitamin dose for Lead intoxication so I reversed engineering to figure out the dose with less quantity of milk. In 2005-2006 timeframe, I started gaining confidence that vitamin dose to cure Lead intoxication is absolutely correct and I decided to file the patent papers. […] I wish I could have this dose in 1990 then I didn't have to go through all the suffering and pain from 1990-2005, almost fifteen years. Therefore the vitamin dose or multi-vitamin formula for Lead intoxication is determined by trial and error method and is the result of fifteen years of work. Sometimes God makes the things happen for purpose and I was chosen the vehicle.
All these symptoms depend upon the amount of lead in body and the kind of diet and vitamins I was taking. I went through lot of ups and downs in figuring out the vitamin dose or formula to cure Lead induced ill-health symptoms. I gained so much experience by working trial and error methods on vitamins that I could simulate most of these symptoms in my body. […] I have shown this formula below as OM-50 dose, primarily because some vitamins' quantities are in 50 unit. Multiply all the ingredients by 2 will give OM-100, and divide by 2 will give OM-25, and so on.

| Molecule | effectiveness during heavy bleeding and/or elevated sugar level (Beta Carotene 30,000 I.U. in the formula, Lead intoxication plus heavy bleeding and/or elevated sugar level) | soothing of Lead intoxication symptoms |
| --- | --- | --- |
| CC1=C(/C=C/C(C)=C/C=C/C(C)=C/C=C/C=C(C)/C=C/C=C(C)/C=C/C2=C(C)CCCC2(C)C)C(C)(C)CCC1 [Beta Carotene] | very effective | soothe very effectively |
| vitamin E |  | soothe very effectively |
